SMILES strings stand for the structures.

Drawing on EP0469547B1, “4-Amino-delta4,6-steroids and their use as 5alpha-reductase inhibitors” (MERRELL PHARMACEUTICALS INC., priority 1990, dated 1992), this text covers IC50 for three compounds.

The target of this test is T1, steroid 5α-reductase (Homo sapiens, UniProt P31213).
T1 construct: Microsomal preparations of the steroid 5α-reductase enzyme (protein) were obtained from human prostate tissue; from tissue; host or cells: human prostate tissue (microsomal preparation)
T1 sequence (P31213 1-254): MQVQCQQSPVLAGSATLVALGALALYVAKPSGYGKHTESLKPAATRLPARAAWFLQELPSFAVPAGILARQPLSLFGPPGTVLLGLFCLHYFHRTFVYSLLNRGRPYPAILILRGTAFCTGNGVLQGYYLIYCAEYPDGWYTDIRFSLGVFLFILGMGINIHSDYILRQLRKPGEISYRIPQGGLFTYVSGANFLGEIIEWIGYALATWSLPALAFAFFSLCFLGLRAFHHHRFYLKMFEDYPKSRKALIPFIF
The test is described as follows: 5α-reductase inhibition test with human prostate microsomal preparations (conversion of 1,2-³H-testosterone to dihydrotestosterone, HPLC). Format: biochemical. The method, then: Microsomal preparations of the steroid 5α-reductase enzyme (protein) were obtained from human prostate tissue and stored in aliquots. Protein concentration was determined prior to use of the samples. In the method itself, individual assays for 5α-reductase activity contained 0.1M phosphate citrate buffer, pH 5.6, 1mM EDTA, 7 to 22 µg of microsomal protein, 1mM NADPH, 5 mM glucose-6-phosphate, 1 IU/ml glucose-6-phosphate dehydrogenase, 1,2-³H-testosterone, and test compound, dissolved in dimethyl sulfoxide and then diluted in phosphate-citrate buffer to yield a final assay concentration of 0.1% (v/v) dimethyl sulfoxide. The same buffer and the same quantity of dimethyl sulfoxide, without any test compound is used for the control assays. The total assay volume was 100 µl and assays were performed in duplicate. The reaction was initiated by the addition of the testosterone, and incubated for 30 minutes at 25°C. The assay is linear with time to 30 minutes.
Depending on the nature of the inhibition, testosterone concentration was typically varied from 0.15 µM (approximately 0.5 Km) to 10 Km with radioactive label constant at 0.15 µCi per assay. The amount of test compound added was varied to provide final concentrations of 1 nM to 100 µM. The reaction was quenched by the addition of 50 volumes of chloroform:methanol (2:1). The steroids were then extracted and separated by high pressure liquid chromatography and the amounts of testosterone and dihydrotestosterone present were determined to determine the percent conversion of testosterone to dihydrotestosterone and to calculate the 5α-reductase activity. The activity of the test compound was then expressed as the IC₅₀, or the concentration of test compound that produced a 50% inhibition of the testosterone conversion. When compounds of the present invention were tested in this way, the following results were observed: […]

For the compound `CC(C)(C)NC(=O)[C@H]1CC[C@H]2[C@@H]3C=CC4=C(N)C(=O)CC[C@]4(C)[C@H]3CC[C@]12C` [4-Amino-N-(1,1-dimethylethyl)-3-oxoandrosta-4,6-diene-17β-carboxamide], the midpoint of inhibition, the IC50, lay at 8 nM.

Compound `CC(C)N(C(=O)[C@H]1CC[C@H]2[C@@H]3C=CC4=C(N)C(=O)CC[C@]4(C)[C@H]3CC[C@]12C)C(C)C` [4-Amino-N,N-bis(1-methylethyl)-3-oxoandrosta-4,6-diene-17β-carboxamide] gave an IC50 of 16 nM.

Compound `CC(=O)[C@H]1CC[C@H]2[C@@H]3C=CC4=C(N)C(=O)CC[C@]4(C)[C@H]3CC[C@]12C` [4-Aminopregna-4,6-diene-3,20-dione] registered an IC50 of 25 nM.

By IC50 is commonly meant the midpoint of a concentration-inhibition curve.
